# Measurements reported in patent US10363239B2, “Method for inhibiting growth of cancer cells” (Pain Therapeutics, Inc., priority 2013, dated 2019).
# Read-outs that look alike come from different tables or passages of the source.
# Columns and labels:
# [1] = target: FLNA pentapeptide of SEQ ID NO: 1 (Bn-VAKGL) (Homo sapiens, UniProt P21333); experiment: FITC-NLX-based FLNA screening assay (inhibition of FITC-naloxone binding to Bn-VAKGL on streptavidin plates); conditions: 10 nM FITC-NLX
# mu opiate receptor (MOR) = experiment: MOR agonist activity using [35S]GTPγS binding assay in striatal membranes; type: biochemical; conditions: for MOR agonist activity ([35S]GTPγS binding), FLNA-Binding Compound as Agonist 1 μM + BFNA: 1 μM compound + 1 μM β-funaltrexamine
# Outline: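 Striatal membranes (200 μg) were preincubated 5 min at 30 °C in HEPES pH 7.5 with 100 mM NaCl, 1 mM MgCl2 and 0.5 nM [35S]GTPγS, then 5 min more with 0.1–10 μM compound. Gαo was immunoprecipitated and bound radioactivity counted by scintillation.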
# [2] = read-out: Percent Binding Inhibition, FLNA-binding compound 0.01 μM
# [3] = read-out: Percent Binding Inhibition, FLNA-binding compound 0.1 μM
# [4] = read-out: Percent Binding Inhibition, FLNA-binding compound 1 μM
# [5] = Series C-1, 0.1 μM compound, relative to DAMGO
# [6] = Series C-1, 0.1 μM compound, [35S]GTPγS binding to Gαo, striatal membranes
# [7] = Series C-1, 1 μM compound + 1 μM β-FNA
# [8] = Series C-1, 1 μM compound + β-FNA, relative to DAMGO + BFNA
# [9] = Series C-1, 1 μM compound, relative to DAMGO
# [10] = Series C-1, 1 μM compound, [35S]GTPγS binding to Gαo, striatal membranes
# [11] = 0.1 μM compound relative to DAMGO
# [12] = 1 μM compound + BFNA relative to DAMGO + BFNA
# [13] = 1 μM compound relative to DAMGO
# [14] = FLNA-binding compound 0.01 μM, read-out: Percent Binding Inhibition
# [15] = FLNA-binding compound 0.1 μM, read-out: Percent Binding Inhibition
# [16] = FLNA-binding compound 1 μM, read-out: Percent Binding Inhibition
# [17] = Series C-2, 0.1 μM compound, relative to DAMGO
# [18] = Series C-2, 0.1 μM compound, [35S]GTPγS binding to Gαo, striatal membranes
# [19] = Series C-2, 1 μM compound + 1 μM β-FNA
# [20] = Series C-2, 1 μM compound + β-FNA, relative to DAMGO + BFNA
# [21] = Series C-2, 1 μM compound, relative to DAMGO
# [22] = Series C-2, 1 μM compound, [35S]GTPγS binding to Gαo, striatal membranes
SMILES,"inhibition at 0.01 µM [1, 2] [%]","inhibition at 0.1 µM [1, 3] [%]","inhibition at 1 µM [1, 4] [%]",% DAMGO (0.1 μM) (mu opiate receptor (MOR); [5]) [%],Concentration of FLNA-Binding Compound as Agonist 0.1 μM (mu opiate receptor (MOR); [6]) [%],Concentration of FLNA-Binding Compound as Agonist 1 μM + BFNA (mu opiate receptor (MOR); [7]) [%],% DAMGO + BFNA (mu opiate receptor (MOR); [8]) [%],% DAMGO (1 μM) (mu opiate receptor (MOR); [9]) [%],Concentration of FLNA-Binding Compound as Agonist 1 μM (mu opiate receptor (MOR); [10]) [%],"inhibition at 0.01 µM [1, 14] [%]","inhibition at 0.1 µM [1, 15] [%]","inhibition at 1 µM [1, 16] [%]",further results
O=S(=O)(c1cccc(OC(F)(F)F)c1)N1CCC2(CC1)OCCN2S(=O)(=O)c1cccc(OC(F)(F)F)c1 [Compound C0005],35.2,44.5,51.5,105.4,180.4,166.4,319.4,85.1,227.2,–,–,–,–
CC1CCC(C(C)C)C(OCC(O)Cn2ccc3ccccc32)C1 (stereo not drawn) [Compound A0078],50.1,55.8,57.6,–,–,–,–,–,–,–,–,–,"MOR agonist activity ([35S]GTPγS binding), FLNA-Binding Compound as Agonist 0.1 μM (mu opiate receptor (MOR); 0.1 μM compound): 250.5%; % DAMGO (0.1 μM) (mu opiate receptor (MOR); [11]): 124.9%; MOR agonist activity ([35S]GTPγS binding), FLNA-Binding Compound as Agonist 1 μM (mu opiate receptor (MOR); 1 μM compound): 289.9%; MOR agonist activity ([35S]GTPγS binding), FLNA-Binding Compound as Agonist 1 μM + BFNA (mu opiate receptor (MOR)): 147.8%; % DAMGO + BFNA (mu opiate receptor (MOR); [12]): 274.2%; % DAMGO (1 μM) (mu opiate receptor (MOR); [13]): 92.3%"
Cc1cccc(OCC(O)CN2CC(C)OC(C)C2)c1 (stereo not drawn) [Compound A0030],–,–,–,–,–,–,–,–,–,35.6,44.4,48.9,"MOR agonist activity ([35S]GTPγS binding), FLNA-Binding Compound as Agonist 0.1 μM (mu opiate receptor (MOR); 0.1 μM compound): 133.4%; % DAMGO (0.1 μM) (mu opiate receptor (MOR); [11]): 75.5%; MOR agonist activity ([35S]GTPγS binding), FLNA-Binding Compound as Agonist 1 μM (mu opiate receptor (MOR); 1 μM compound): 287.8%; MOR agonist activity ([35S]GTPγS binding), FLNA-Binding Compound as Agonist 1 μM + BFNA (mu opiate receptor (MOR)): 165.2%; % DAMGO + BFNA (mu opiate receptor (MOR); [12]): 628.1%; % DAMGO (1 μM) (mu opiate receptor (MOR); [13]): 113.2%"
COc1c2c(cc3c1C(CC(O)CCc1ccccc1)[N+](C)(C)CC3)OCO2 (stereo not drawn) [Compound B0052],30.2,39.1,44.3,–,–,–,–,–,–,–,–,–,"% DAMGO (0.1 μM) (mu opiate receptor (MOR); Series B, 0.1 μM compound, relative to DAMGO): 58.1%; MOR agonist activity, percent [35S]GTPγS binding at the stated compound concentration (mu opiate receptor (MOR); Series B, 0.1 μM compound, [35S]GTPγS binding to Gαo, striatal membranes): 98.2%; MOR agonist activity, percent [35S]GTPγS binding at the stated compound concentration (mu opiate receptor (MOR); Series B, 1 μM compound + 1 μM β-FNA): 40.9%; % DAMGO + BFNA (mu opiate receptor (MOR); Series B, 1 μM compound + β-FNA, relative to DAMGO + BFNA): 246.4%; % DAMGO (1 μM) (mu opiate receptor (MOR); Series B, 1 μM compound, relative to DAMGO): 69.3%; MOR agonist activity, percent [35S]GTPγS binding at the stated compound concentration (mu opiate receptor (MOR); Series B, 1 μM compound, [35S]GTPγS binding to Gαo, striatal membranes): 151.7%"
O=C1CN(Cc2ccccc2)C2(CCNCC2)N1 [Compound C0115M],47.8,57.8,59.9,–,–,–,–,–,–,–,–,–,"% DAMGO (0.1 μM) (mu opiate receptor (MOR); [17]): 105.7%; MOR agonist activity, percent [35S]GTPγS binding at the stated compound concentration (mu opiate receptor (MOR); [18]): 177.2%; MOR agonist activity, percent [35S]GTPγS binding at the stated compound concentration (mu opiate receptor (MOR); [19]): 118.4%; % DAMGO + BFNA (mu opiate receptor (MOR); [20]): 249.3%; % DAMGO (1 μM) (mu opiate receptor (MOR); [21]): 102.0%; MOR agonist activity, percent [35S]GTPγS binding at the stated compound concentration (mu opiate receptor (MOR); [22]): 226.8%"
CC(=O)c1ccc(C(=O)N2CCC3(CC2)OCCN3S(=O)(=O)c2ccc(C(C)=O)cc2)cc1 [Compound C0052],28,35.6,40.8,74.8,108.4,42.7,97.0,69.9,162.8,–,–,–,–
COc1ccc(NC(=O)N2CCC3(CC2)OCCN3S(=O)(=O)c2ccc(OC)cc2)cc1 [Compound C0041],38.3,47,51.2,110.1,186.1,95.5,575.3,111.7,244.4,–,–,–,–
CC(=O)c1ccc(S(=O)(=O)N2CCOC23CCN(CC2CC2)CC3)cc1 [Compound C0095M],–,–,–,–,–,–,–,–,–,40.1,46.6,50.5,"% DAMGO (0.1 μM) (mu opiate receptor (MOR); [17]): 107.4%; MOR agonist activity, percent [35S]GTPγS binding at the stated compound concentration (mu opiate receptor (MOR); [18]): 189.1%; MOR agonist activity, percent [35S]GTPγS binding at the stated compound concentration (mu opiate receptor (MOR); [19]): 107.7%; % DAMGO + BFNA (mu opiate receptor (MOR); [20]): 489.5%; % DAMGO (1 μM) (mu opiate receptor (MOR); [21]): 88.8%; MOR agonist activity, percent [35S]GTPγS binding at the stated compound concentration (mu opiate receptor (MOR); [22]): 224.6%"
N#Cc1ccc(S(=O)(=O)N2CCC3(CC2)OCCN3S(=O)(=O)c2ccc(C#N)cc2)cc1 [Compound C0008],–,–,–,41.4,71.2,2.8,4.4,72.9,201.6,42.2,52.3,54.4,–
